Target: T1, Nuclear factor erythroid 2-related factor 2 (Homo sapiens, UniProt Q16236)
T1 sequence (Q16236 whole entry): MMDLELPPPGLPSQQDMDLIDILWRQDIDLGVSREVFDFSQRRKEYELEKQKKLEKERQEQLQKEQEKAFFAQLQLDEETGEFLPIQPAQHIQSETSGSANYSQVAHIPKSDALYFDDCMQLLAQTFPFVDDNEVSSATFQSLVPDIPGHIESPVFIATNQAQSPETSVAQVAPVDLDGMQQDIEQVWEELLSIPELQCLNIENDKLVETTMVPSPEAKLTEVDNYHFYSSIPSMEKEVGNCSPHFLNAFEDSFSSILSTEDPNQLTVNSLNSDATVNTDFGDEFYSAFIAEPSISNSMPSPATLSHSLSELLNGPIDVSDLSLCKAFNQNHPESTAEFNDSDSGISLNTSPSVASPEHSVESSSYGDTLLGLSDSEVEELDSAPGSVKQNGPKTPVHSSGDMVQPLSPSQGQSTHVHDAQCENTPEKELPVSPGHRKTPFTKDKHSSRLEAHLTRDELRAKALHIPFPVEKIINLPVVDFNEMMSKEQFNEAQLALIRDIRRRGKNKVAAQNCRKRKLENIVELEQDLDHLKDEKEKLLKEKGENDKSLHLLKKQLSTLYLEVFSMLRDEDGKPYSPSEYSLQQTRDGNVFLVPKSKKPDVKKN
Assay: Activation of Nrf2 (unknown origin) expressed in human U2OS cells co-expressing Keap1 assessed as increase in Nrf2 nuclear translocation incubated for 6 hrs under dark condition by pathhunter assay
Assay type: cell-based
Conditions: not given
`O=S(=O)(/C=C/c1cccc(Cl)n1)c1ccc(Cl)cc1` gave an EC50 of 1460 nM. Work on `O=S(=O)(/C=C/c1cccc(Cl)n1)c1cccc(Cl)c1` yielded an EC50 of 1070 nM. For `O=S(=O)(/C=C\c1ncccc1Cl)c1ccccc1Cl`, the EC50 was 1100 nM. Molecule `O=S(=O)(/C=C/c1ccccn1)c1ccc(Cl)cc1` has an EC50 of 1730 nM. Molecule `O=S(=O)(/C=C/c1ccccn1)c1cccc(F)c1` has an EC50 of 1680 nM. Work on `O=S(=O)(/C=C\c1ccc(Cl)nc1)c1cccc(F)c1` yielded an EC50 of 965 nM. In the case of `O=S(=O)(/C=C/c1cccnc1Cl)c1cccc(F)c1`, the EC50 is reported as 328 nM. `O=S(=O)(/C=C/c1ccc(Cl)cn1)c1ccc(F)cc1` gave an EC50 of 4370 nM. In the case of `O=S(=O)(/C=C/c1cccc(Cl)n1)c1ccc(F)cc1`, the EC50 is reported as 2790 nM. `O=S(=O)(/C=C/c1ncccc1Cl)c1cccc(Cl)c1` showed an EC50 of 46 nM. `O=S(=O)(/C=C/c1ncccc1F)c1ccccc1F` showed an EC50 of 176 nM. Molecule `O=S(=O)(/C=C/c1ccccn1)c1cccc(Cl)c1` has an EC50 of 1430 nM. Molecule `O=S(=O)(/C=C/c1ccc(Cl)cn1)c1ccc(Cl)cc1` has an EC50 of 3160 nM. `O=S(=O)(/C=C/c1ccc(Cl)nc1)c1ccccc1F` showed an EC50 of 2550 nM. In the case of `O=S(=O)(/C=C/c1ccc(Cl)nc1)c1ccc(Cl)cc1`, the EC50 is reported as greater than 10000 nM. `O=S(=O)(/C=C/c1ncccc1F)c1cccc(F)c1` showed an EC50 of 474 nM. Molecule `O=S(=O)(/C=C/c1ncccc1Cl)c1ccc(Cl)cc1` has an EC50 of 65 nM. With `O=S(=O)(/C=C\c1ncccc1Cl)c1ccc(Cl)cc1` the EC50 was 1750 nM. Molecule `O=S(=O)(/C=C/c1ncccc1Cl)c1ccc(F)cc1` has an EC50 of 231 nM. `O=S(=O)(/C=C/c1ncccc1F)c1ccccc1Cl` gave an EC50 of 122 nM. `O=S(=O)(/C=C/c1ccccn1)c1ccccc1Cl` gave an EC50 of 618 nM. In the case of `O=S(=O)(/C=C\c1ncccc1F)c1ccccc1Cl`, the EC50 is reported as 583 nM. `O=S(=O)(/C=C\c1cccnc1Cl)c1ccccc1F` gave an EC50 of 3390 nM. With `O=S(=O)(/C=C/c1cccnc1Cl)c1ccccc1F` the EC50 was 217 nM. In the case of `O=S(=O)(/C=C/c1ccccn1)c1ccccc1F`, the EC50 is reported as 1050 nM. `O=S(=O)(/C=C\c1ncccc1Cl)c1cccc(Cl)c1` showed an EC50 of 290 nM. Work on `O=S(=O)(/C=C/c1ncccc1F)c1ccc(F)cc1` yielded an EC50 of 542 nM. Molecule `O=S(=O)(/C=C/c1ncccc1Cl)c1ccccc1F` has an EC50 of 30 nM. With `O=S(=O)(/C=C/c1cccnc1Cl)c1ccc(Cl)cc1` the EC50 was 305 nM. With `O=S(=O)(/C=C\c1ncccc1F)c1ccccc1F` the EC50 was 482 nM. With `O=S(=O)(/C=C/c1cccc(Cl)n1)c1ccccc1F` the EC50 was 898 nM. `O=S(=O)(/C=C/c1ncccc1F)c1ccc(Cl)cc1` showed an EC50 of 286 nM. `O=S(=O)(/C=C\c1cccc(Cl)n1)c1ccccc1Cl` gave an EC50 of 147 nM. With `O=S(=O)(/C=C/c1ccc(Cl)nc1)c1cccc(Cl)c1` the EC50 was 2210 nM. `O=S(=O)(/C=C\c1ncccc1Cl)c1ccccc1F` gave an EC50 of 1030 nM. Work on `O=S(=O)(/C=C/c1ccncc1)c1cccc(F)c1` yielded an EC50 of 950 nM. `O=S(=O)(/C=C/c1ncccc1F)c1cccc(Cl)c1` showed an EC50 of 198 nM. Molecule `O=S(=O)(/C=C/c1ccncc1)c1ccccc1Cl` has an EC50 of 781 nM. `O=S(=O)(/C=C/c1ccc(Cl)nc1)c1ccccc1Cl` gave an EC50 of 1630 nM. `O=S(=O)(/C=C/c1cccnc1)c1cccc(Cl)c1` gave an EC50 of 3520 nM. Molecule `O=S(=O)(/C=C\c1ncccc1F)c1cccc(Cl)c1` has an EC50 of 252 nM. With `O=S(=O)(/C=C/c1ccc(Cl)cn1)c1cccc(Cl)c1` the EC50 was 1510 nM. For `O=S(=O)(/C=C/c1ccc(Cl)nc1)c1cccc(F)c1`, the EC50 was 4870 nM. Molecule `O=S(=O)(/C=C/c1cccnc1Cl)c1cccc(Cl)c1` has an EC50 of 213 nM. `O=S(=O)(/C=C/c1ccncc1)c1cccc(Cl)c1` gave an EC50 of 528 nM. `O=S(=O)(/C=C/c1ccc(Cl)nc1)c1ccc(F)cc1` showed an EC50 greater than 10000 nM. `O=S(=O)(/C=C\c1cccnc1Cl)c1ccccc1Cl` showed an EC50 of 384 nM. In the case of `O=S(=O)(/C=C/c1ccc(Cl)cn1)c1ccccc1F`, the EC50 is reported as 1040 nM. Molecule `O=S(=O)(/C=C\c1cccnc1)c1cccc(F)c1` has an EC50 of 4820 nM. In the case of `O=S(=O)(/C=C/c1ccc(Cl)cn1)c1cccc(F)c1`, the EC50 is reported as 2500 nM. `O=S(=O)(/C=C/c1cccnc1)c1ccccc1Cl` gave an EC50 of 2850 nM. Molecule `O=S(=O)(/C=C/c1ccccn1)c1ccc(F)cc1` has an EC50 of 3100 nM. `O=S(=O)(/C=C/c1cccnc1)c1ccccc1F` showed an EC50 of 6850 nM. For `O=S(=O)(/C=C/c1cccnc1Cl)c1ccc(F)cc1`, the EC50 was 339 nM. `O=S(=O)(/C=C/c1cccnc1Cl)c1ccccc1Cl` gave an EC50 of 192 nM. `O=S(=O)(/C=C\c1ccc(Cl)nc1)c1cccc(Cl)c1` showed an EC50 of 3390 nM. With `O=S(=O)(/C=C/c1ccncc1)c1ccccc1F` the EC50 was 760 nM. In the case of `O=S(=O)(/C=C/c1ccc(Cl)cn1)c1ccccc1Cl`, the EC50 is reported as 2940 nM.

Target: CYP2C9 (Homo sapiens, UniProt P11712)
Sequence (P11712 whole entry): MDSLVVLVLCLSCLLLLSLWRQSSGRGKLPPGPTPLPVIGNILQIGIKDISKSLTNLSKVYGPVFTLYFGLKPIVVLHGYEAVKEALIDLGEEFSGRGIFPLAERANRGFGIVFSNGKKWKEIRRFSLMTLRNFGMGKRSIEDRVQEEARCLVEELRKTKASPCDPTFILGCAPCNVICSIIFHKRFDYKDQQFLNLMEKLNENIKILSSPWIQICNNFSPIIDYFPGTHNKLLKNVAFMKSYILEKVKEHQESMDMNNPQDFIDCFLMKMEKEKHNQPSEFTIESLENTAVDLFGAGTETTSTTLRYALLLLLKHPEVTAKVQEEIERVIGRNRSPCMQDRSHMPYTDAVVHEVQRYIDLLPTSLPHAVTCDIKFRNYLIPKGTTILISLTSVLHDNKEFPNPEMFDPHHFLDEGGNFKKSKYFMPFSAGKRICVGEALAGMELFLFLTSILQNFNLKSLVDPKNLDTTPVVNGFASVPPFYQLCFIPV
Assay: Inhibition of CYP2C9 (unknown origin) assessed as residual activity
Assay type: ADME
Conditions: not given
With `COc1ccccc1S(=O)(=O)/C=C/c1ccccc1Cl` the activity was 100%.

Tested on: not listed separately
Assay: Stability in human plasma assessed as parent compound remaining after 30 mins by LC-MS/MS analysis
Assay type: ADME, cell-free
Conditions: read-out: Stabilty
`COc1ccccc1S(=O)(=O)/C=C/c1ccccc1Cl` showed a remaining at 0.5 h of 86.1%.

Target: Voltage-gated inwardly rectifying potassium channel KCNH2 (Homo sapiens, UniProt Q12809)
Sequence (Q12809 whole entry): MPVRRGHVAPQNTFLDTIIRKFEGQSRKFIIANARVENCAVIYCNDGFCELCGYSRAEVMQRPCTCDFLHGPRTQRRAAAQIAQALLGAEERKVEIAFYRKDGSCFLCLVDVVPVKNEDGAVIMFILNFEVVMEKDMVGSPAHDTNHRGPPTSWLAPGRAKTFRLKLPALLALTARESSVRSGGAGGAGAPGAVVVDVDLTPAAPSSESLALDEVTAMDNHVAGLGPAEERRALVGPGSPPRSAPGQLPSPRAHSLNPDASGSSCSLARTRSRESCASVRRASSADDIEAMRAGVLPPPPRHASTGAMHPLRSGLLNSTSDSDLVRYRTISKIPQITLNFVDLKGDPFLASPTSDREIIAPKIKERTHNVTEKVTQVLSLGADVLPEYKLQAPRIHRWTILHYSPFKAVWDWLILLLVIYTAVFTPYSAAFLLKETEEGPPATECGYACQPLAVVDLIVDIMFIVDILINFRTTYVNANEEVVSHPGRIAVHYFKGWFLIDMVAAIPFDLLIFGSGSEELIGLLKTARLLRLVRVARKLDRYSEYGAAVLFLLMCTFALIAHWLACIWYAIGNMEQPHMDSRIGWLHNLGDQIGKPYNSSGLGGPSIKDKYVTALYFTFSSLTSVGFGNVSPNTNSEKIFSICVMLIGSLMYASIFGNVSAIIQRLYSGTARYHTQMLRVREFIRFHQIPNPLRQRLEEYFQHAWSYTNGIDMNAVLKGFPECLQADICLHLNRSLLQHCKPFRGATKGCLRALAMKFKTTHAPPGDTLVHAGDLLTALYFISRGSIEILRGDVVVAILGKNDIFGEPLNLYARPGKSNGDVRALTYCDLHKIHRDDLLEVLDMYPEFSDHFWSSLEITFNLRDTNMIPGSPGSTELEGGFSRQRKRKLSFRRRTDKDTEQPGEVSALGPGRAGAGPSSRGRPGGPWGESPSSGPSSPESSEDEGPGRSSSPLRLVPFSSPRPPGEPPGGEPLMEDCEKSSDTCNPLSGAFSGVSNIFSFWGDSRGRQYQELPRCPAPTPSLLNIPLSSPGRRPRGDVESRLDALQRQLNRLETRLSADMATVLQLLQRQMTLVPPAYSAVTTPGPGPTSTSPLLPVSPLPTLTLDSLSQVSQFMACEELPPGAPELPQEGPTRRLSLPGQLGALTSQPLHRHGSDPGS
Assay: Inhibition of fluorescence tracer red binding to human ERG measured after 4 hrs by fluorescence polarization assay
Conditions: not given
In the case of `COc1ccccc1S(=O)(=O)/C=C/c1ccccc1Cl`, the IC50 is reported as 12000 nM.

Tested on: not listed separately
Assay: Cytotoxicity against mouse BV-2 cells assessed cell viability at 10 uM measured after 6 hrs by Ez-cytox reagent based assay relative to control
Conditions: read-out: Activity
For `COc1ccccc1S(=O)(=O)/C=C/c1ccccc1Cl`, the viability at 6 h, 10 µM was 90.1%.
